Assays:
[1] = target: Hsp90 (C. neoformans whole cell lysate) (Cryptococcus neoformans, UniProt J9VVA4); assay type: binding; conditions: for EC50: read-out: C. neo EC50
Procedure: (§1) All analogs were assessed for Hsp90 binding affinity using a fluorescence polarization (FP)-based equilibrium competition assay in fungal and human whole cell lysates. […] Using lysates, the relative potency and selectivity for fungal Hsp90 was measured versus the entire ensemble of human Hsp90 isoforms in microplate format using small amounts of test materials. […] Thermal shift assays were performed under saturating ligand conditions, i.e. equimolar concentrations (10 μM) of protein and ligand. As a result, they provided qualitative evidence of target binding, but not a quantitative measurement of ligand affinity. For quantitation, a ligand dissociation constant (Ki) for key compounds was also determined using purified NBDs in FP assays and KD measurements were made by surface plasmon resonance (SPR) using a Biacore instrument. Finally, all analogs were assessed for whole cell antifungal activity against the pathogens C. albicans and C. neoformans.
(§2) FP assays. Whole cell lysates were prepared for FP assays as described previously. Total protein concentration of human and yeast lysates was determined by Bradford assay. […] Serial dilutions of test Hsp90 inhibitors were then assayed under these same conditions to monitor loss of fluorescence polarization as an indicator of probe displacement from Hsp90. […] Titrations of test compound in 25 μL of binding buffer (supplemented with 0.1 mg/mL bovine gamma globulin), were mixed with an equal volume of freshly prepared whole-cell lysate spiked with Cy3-GdA (0.1 nM). Plates were incubated at room temperature for 4.5 h to achieve equilibrium binding for the geldanamycin-based probe. […] Non-linear 4-parameter curve fitting of raw displacement data was performed in GraphPad Prism 5.0 to determine EC50 values as a measure of relative Hsp90-binding affinity. Results were normalized to the value determined for GdA in lysate of each cell type.
(§3) Statistical methods. […] In calculating the error of selectivity determinations, the fractional error of measurements in each species was summed to yield a composite error for the derived ratio.

[2] = test system: Hsp90 (C. neoformans whole cell lysate); assay type: binding; conditions: C. neo FS calculated using EC50
Procedure: as §1, §2, §3

[3] = target: Hsp90 (C. albicans whole cell lysate) (Candida albicans (strain SC5314 / ATCC MYA-2876) (Yeast), UniProt P46598); assay: biochemical; assay type: binding; conditions: for C. alb Active (biochemical): Yes/No call; for EC50: read-out: C. alb EC50
Procedure: as §1, §2, §3

[4] = test system: Hsp90 (C. albicans whole cell lysate); assay: biochemical; assay type: binding; conditions: for C. alb Selective: Yes/No call
Procedure: as §1, §2, §3

[5] = test system: C. neoformans (Strain H99); assay: Antifungal sensitivity testing (MIC), C. neoformans H99; assay type: cell-based; conditions: for MIC80 / MIC90: Cryptococcus neoformans; for MIC80: read-out: C. neo MIC80; for MIC90: read-out: C. neo MIC90
Procedure: Color scale bar: no growth inhibition (green) to complete inhibition (black). Each shaded box represents the mean of technical duplicates. The experiment was repeated as an independent biological replicate to confirm results.
Minimum inhibitory concentration (MIC) value for compounds against C. neoformans (Strain H99) was determined in dose-response format, in technical duplicate. Experiments were conducted in RPMI medium at 37° C. for 48 h. Relative viable cell number was measured by standard dye reduction (resazurin) assay.
Yeast strains and culture conditions. Strains used in this study were C. albicans CaCi2 (clinical isolate 2), [58] SC5314, [59] and C. neoformans H99. […] Active cultures were maintained on solid (2% agar) yeast extract peptone (YPD, 1% yeast extract, 2% bactopeptone, 2% glucose) at 4° C. for no more than one month.
Antifungal sensitivity testing. […] Each compound was tested in duplicate in at least two independent experiments. […] Plates were photographed after 24 h of incubation at 30° C.

Hsp90 (C. neoformans whole cell lysate) (Cryptococcus neoformans, UniProt J9VVA4), sequence (J9VVA4 1-699): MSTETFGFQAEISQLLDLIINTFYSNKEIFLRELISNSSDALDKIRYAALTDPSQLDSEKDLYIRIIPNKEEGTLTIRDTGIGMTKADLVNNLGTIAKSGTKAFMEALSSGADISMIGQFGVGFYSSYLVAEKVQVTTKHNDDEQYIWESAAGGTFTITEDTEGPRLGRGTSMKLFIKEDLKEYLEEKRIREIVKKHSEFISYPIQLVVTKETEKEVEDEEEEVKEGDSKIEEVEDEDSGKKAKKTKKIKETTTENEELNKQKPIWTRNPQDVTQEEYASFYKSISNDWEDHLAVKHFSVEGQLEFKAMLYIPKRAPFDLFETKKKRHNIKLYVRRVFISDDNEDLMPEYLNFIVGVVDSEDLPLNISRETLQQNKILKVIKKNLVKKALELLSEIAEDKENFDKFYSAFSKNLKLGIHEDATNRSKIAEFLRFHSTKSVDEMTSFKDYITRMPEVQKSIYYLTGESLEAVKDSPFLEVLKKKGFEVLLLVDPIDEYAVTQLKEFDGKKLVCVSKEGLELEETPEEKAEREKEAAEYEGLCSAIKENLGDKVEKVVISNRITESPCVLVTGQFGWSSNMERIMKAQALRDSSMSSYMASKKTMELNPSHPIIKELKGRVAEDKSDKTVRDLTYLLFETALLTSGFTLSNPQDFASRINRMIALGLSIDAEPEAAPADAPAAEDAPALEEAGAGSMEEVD

| SMILES | C. alb Active (biochemical) [3] | MIC80 [5] [µM] | MIC90 [5] [µM] | C. neo Active (biochemical) ([1]; Yes/No call) | EC50 [1] [µM] | C. neo Selectivity (FS) [2] | EC50 [3] [µM] | C. alb Selectivity (FS) [4] | C. alb Selective [4] | C. neo MIC80 [5] [µM] | C. neo MIC90 [5] [µM] | C. neo Active (cells) ([5]; Yes/No call) |
| --- | --- | --- | --- | --- | --- | --- | --- | --- | --- | --- | --- | --- |
| Cc1cccc(-c2cc(Nc3cc(O)cc(O)c3C(=O)N3Cc4ccc(N5CCN(C)CC5)cc4C3)n(C)n2)c1 [ACSM01279] | Yes | – | – | – | 0.449 | 18.3 | 2.15 | 3.7 | No | >25 | >25 | – |
| Cc1cccc(-c2cc(Nc3cc(O)cc(O)c3C(=O)N3Cc4ccc(N5CCOCC5)cc4C3)n(C)n2)c1 [ACSM01280] | No | – | – | – | 2 | 6 | > 10 | – | No | >25 | >25 | – |
| Cn1nccc1Nc1cc(O)cc(O)c1C(=O)N1CC2CC2C1 (stereo not drawn) [ACSM01301] | No | – | – | – | 2.4 | 5 | > 10 | – | No | >25 | >25 | – |
| O=C(c1c(O)cc(O)cc1Nc1cc(-c2ccccc2)nn1-c1ccccc1)N1Cc2ccccc2C1 [ACSM01305] | Yes | – | – | – | 0.577 | 8.1 | 1.89 | 0.9 | No | 6.25 | 3 | – |
| COc1cccc(-c2cc(Nc3cc(O)cc(O)c3C(=O)N3Cc4ccc(N5CCN(C)CC5)cc4C3)n(C)n2)c1 [ACSM01375] | No | – | – | – | 1.24 | 9.6 | > 10 | – | No | >25 | >25 | – |
| O=C(O)Cn1nc(-c2ccccc2)cc1Nc1cc(O)cc(O)c1C(=O)N1Cc2ccccc2C1 [ACSM01476] | Yes | – | – | – | 0.537 | 5.8 | 2.12 | 1.4 | No | >25 | >25 | – |
| Cc1cccc(-n2nc(C)c(Nc3cc(O)cc(O)c3C(=O)N3Cc4ccccc4C3)c2C)c1 [ACSM01486, (2-((3,5-Dimethyl-1-(m-tolyl)-1H-pyrazol-4-yl)amino)-4,6-dihydroxyphenyl)(isoindolin-2-yl)methanone] | Yes | > 25 | > 25 | – | 0.034 | 43.4 | 2.06 | 0.7 | No | – | – | – |
| COc1ccc(Cn2nc(-c3ccccc3)cc2Nc2cc(O)cc(O)c2C(=O)N2Cc3cccnc3C2)cc1 [Compound 23, 5-((1-((4-Methoxyphenyl)methyl)-3-phenyl-1H-pyrazol-5-yl)amino)-4-(5H,6H,7H-pyrrolo[3,4-b]pyridine-6-carbonyl)benzene-1,3-diol] | – | > 25 | > 25 | Yes | – | – | – | – | – | – | – | No |
| Cn1nc(-c2cccc(C(F)(F)F)c2)cc1Nc1cc(O)cc(O)c1C(=O)N1Cc2ccccc2C1 [Compound 115, 4-(2,3-Dihydro-1H-isoindole-2-carbonyl)-5-((1-methyl-3-(3-(trifluoromethyl)phenyl)-1H-pyrazol-5-yl)amino)benzene-1,3-diol] | Yes | > 25 | > 25 | – | – | – | – | – | – | – | – | – |
| Cn1nc(-c2cccc(C(F)(F)F)c2)cc1Nc1cc(O)cc(O)c1C(=O)N1Cc2cccnc2C1 [Compound 116, 5-((1-Methyl-3-(3-(trifluoromethyl)phenyl)-1H-pyrazol-5-yl)amino)-4-(5H,6H,7H-pyrrolo[3,4-b]pyridine-6-carbonyl)benzene-1,3-diol] | Yes | > 25 | > 25 | – | – | – | – | – | – | – | – | – |
| Cn1nc(-c2cccc(C(F)(F)F)c2)cc1Nc1cc(O)cc(O)c1C(=O)N1Cc2cn[nH]c2C1 [Compound 117, 5-((1-Methyl-3-(3-(trifluoromethyl)phenyl)-1H-pyrazol-5-yl)amino)-4-(1H,4H,5H,6H-pyrrolo[3,4-c]pyrazole-5-carbonyl)benzene-1,3-diol] | Yes | > 25 | > 25 | – | – | – | – | – | – | – | – | – |

More lines, main results first:

| C. alb Active (biochemical) [3] | MIC80 [5] [µM] | MIC90 [5] [µM] | C. neo Active (biochemical) ([1]; Yes/No call) | SMILES | EC50 [1] [µM] | C. neo Selectivity (FS) [2] | EC50 [3] [µM] | C. alb Selectivity (FS) [4] | C. alb Selective [4] | C. neo MIC80 [5] [µM] | C. neo MIC90 [5] [µM] | C. neo Active (cells) ([5]; Yes/No call) |
| --- | --- | --- | --- | --- | --- | --- | --- | --- | --- | --- | --- | --- |
| Yes | > 25 | > 25 | – | Cc1ccc(-c2cc(Nc3cc(O)cc(O)c3C(=O)N3Cc4ccccc4C3)n(C)n2)cc1 [Compound 118, 4-(2,3-Dihydro-1H-isoindole-2-carbonyl)-5-((1-methyl-3-(4-methylphenyl)-1H-pyrazol-5-yl)amino)benzene-1,3-diol] | – | – | – | – | – | – | – | – |
| Yes | > 25 | > 25 | – | Cc1ccc(-c2cc(Nc3cc(O)cc(O)c3C(=O)N3Cc4cccnc4C3)n(C)n2)cc1 [Compound 119, 5-((1-Methyl-3-(4-methylphenyl)-1H-pyrazol-5-yl)amino)-4-(5H,6H,7H-pyrrolo[3,4-b]pyridine-6-carbonyl)benzene-1,3-diol] | – | – | – | – | – | – | – | – |
| Yes | > 25 | > 25 | – | Cc1ccc(-c2cc(Nc3cc(O)cc(O)c3C(=O)N3Cc4cn[nH]c4C3)n(C)n2)cc1 [Compound 120, 5-((1-Methyl-3-(4-methylphenyl)-1H-pyrazol-5-yl)amino)-4-(1H,4H,5H,6H-pyrrolo[3,4-c]pyrazole-5-carbonyl)benzene-1,3-diol] | – | – | – | – | – | – | – | – |
| Yes | > 25 | > 25 | – | COc1ccc(-c2cc(Nc3cc(O)cc(O)c3C(=O)N3Cc4cccnc4C3)n(C)n2)cc1 [Compound 122, 5-((3-(4-Methoxyphenyl)-1-methyl-1H-pyrazol-5-yl)amino)-4-(5H,6H,7H-pyrrolo[3,4-b]pyridine-6-carbonyl)benzene-1,3-diol] | – | – | – | – | – | – | – | – |
| Yes | > 25 | > 25 | – | COc1ccc(-c2cc(Nc3cc(O)cc(O)c3C(=O)N3Cc4cn[nH]c4C3)n(C)n2)cc1 [Compound 123, 5-((3-(4-Methoxyphenyl)-1-methyl-1H-pyrazol-5-yl)amino)-4-(1H,4H,5H,6H-pyrrolo[3,4-c]pyrazole-5-carbonyl)benzene-1,3-diol] | – | – | – | – | – | – | – | – |
